Reference: patent publication US5688913A, “CS-1 peptidomimetics, compositions and methods of using the same” (Cytel Corporation, priority 1995, dated 1997)
Square brackets hold non-standard residues; d marks the D form. Peptide text beside a SMILES is read from it. * marks the point of attachment. Benzenesulfonyl = O=S(=O)(c1ccccc1)*; Acetyl(3-pyridyl) = O=C(Cc1cccnc1)*; Isonicotinoyl = O=C(c1ccncc1)*; Nicotinoyl = O=C(c1cccnc1)*; Morpholide = C1CN(*)CCO1; PhAc = O=C(Cc1ccccc1)*; X14 = O=C(c1cc[nH]n1)*; NHBn = c1ccc(CN*)cc1; NHNH2 = NN*

What follows are compounds tested against VLA-4 (Homo sapiens, UniProt P05556+P13612) (assay: cell-based). Conditions: not given.
Chain of VLA-4 (P13612 34-1032): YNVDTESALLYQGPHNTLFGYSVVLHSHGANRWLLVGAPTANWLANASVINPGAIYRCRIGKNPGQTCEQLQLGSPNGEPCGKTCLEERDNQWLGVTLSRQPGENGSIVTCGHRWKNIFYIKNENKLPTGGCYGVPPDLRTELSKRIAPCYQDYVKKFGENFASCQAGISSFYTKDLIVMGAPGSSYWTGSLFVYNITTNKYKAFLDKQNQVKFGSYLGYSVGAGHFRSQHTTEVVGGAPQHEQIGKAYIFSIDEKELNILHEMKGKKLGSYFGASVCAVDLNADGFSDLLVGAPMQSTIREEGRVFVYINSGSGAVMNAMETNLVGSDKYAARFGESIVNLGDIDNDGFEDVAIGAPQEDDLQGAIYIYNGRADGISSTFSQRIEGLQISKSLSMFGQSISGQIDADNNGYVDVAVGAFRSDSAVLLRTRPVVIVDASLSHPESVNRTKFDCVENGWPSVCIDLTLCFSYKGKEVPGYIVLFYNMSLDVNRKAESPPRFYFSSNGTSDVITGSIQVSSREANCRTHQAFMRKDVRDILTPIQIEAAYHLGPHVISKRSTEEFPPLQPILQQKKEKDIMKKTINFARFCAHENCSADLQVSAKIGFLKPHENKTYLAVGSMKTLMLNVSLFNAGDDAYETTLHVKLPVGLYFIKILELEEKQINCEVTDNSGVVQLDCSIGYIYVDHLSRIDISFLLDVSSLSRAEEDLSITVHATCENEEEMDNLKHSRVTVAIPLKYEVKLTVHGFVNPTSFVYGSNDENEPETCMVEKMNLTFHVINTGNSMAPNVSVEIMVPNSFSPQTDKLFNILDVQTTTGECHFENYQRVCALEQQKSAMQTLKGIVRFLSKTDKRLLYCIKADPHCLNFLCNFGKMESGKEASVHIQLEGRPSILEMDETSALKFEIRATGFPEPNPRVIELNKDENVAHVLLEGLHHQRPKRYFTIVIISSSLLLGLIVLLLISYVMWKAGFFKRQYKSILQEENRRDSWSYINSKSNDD
Chain of VLA-4 (P05556 21-798): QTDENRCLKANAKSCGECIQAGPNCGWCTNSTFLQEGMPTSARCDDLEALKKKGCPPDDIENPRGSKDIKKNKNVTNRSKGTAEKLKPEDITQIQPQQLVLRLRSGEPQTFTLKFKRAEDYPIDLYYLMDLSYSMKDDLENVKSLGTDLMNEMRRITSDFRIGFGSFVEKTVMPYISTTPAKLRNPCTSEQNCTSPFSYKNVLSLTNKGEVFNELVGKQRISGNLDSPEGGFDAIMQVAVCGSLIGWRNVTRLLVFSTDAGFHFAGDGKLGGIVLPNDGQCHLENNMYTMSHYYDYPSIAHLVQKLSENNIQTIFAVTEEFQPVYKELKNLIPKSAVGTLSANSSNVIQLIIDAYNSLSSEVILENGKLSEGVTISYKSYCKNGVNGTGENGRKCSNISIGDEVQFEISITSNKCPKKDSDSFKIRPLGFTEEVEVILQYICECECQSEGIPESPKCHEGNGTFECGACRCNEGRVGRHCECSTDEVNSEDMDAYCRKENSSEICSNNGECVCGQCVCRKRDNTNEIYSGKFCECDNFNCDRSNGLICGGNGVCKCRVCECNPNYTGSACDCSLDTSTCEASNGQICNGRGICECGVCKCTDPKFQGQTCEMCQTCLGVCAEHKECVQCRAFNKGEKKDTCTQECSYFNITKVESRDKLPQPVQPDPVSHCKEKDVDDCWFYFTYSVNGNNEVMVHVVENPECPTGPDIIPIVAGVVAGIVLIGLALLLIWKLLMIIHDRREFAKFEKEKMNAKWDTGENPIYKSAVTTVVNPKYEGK
Type: cell-based
Parameters: host or cells: Jurkat (human T lymphoblastic line)
Procedure, shortened: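 51Cr-labelled Jurkat cells (human T lymphoblastic) were preincubated 30 min at about 22 °C with peptide, then allowed to bind 30 min at 37 °C to wells coated with CS-1 peptide or CS-1-OVA. After washing, bound cells were lysed with SDS and counted. IC50 is the peptide concentration halving binding, normalized to plate controls.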

Structure (SMILES)	RELATIVE POTENCY (relative peptide inhibition of VLA-4 binding CS-1)
CC(C)C[C@H](NS(=O)(=O)c1ccccc1)C(=O)N[C@@H](CC(=O)O)C(=O)N[C@@H](Cc1ccccc1)C(=O)N1CCC[C@@H]1C(N)=O [X L D F p phenylsulfonyl amide] (Benzenesulfonyl-LDF[dP]-NH2)	0
CC(C)C[C@H](NC(=O)c1cc[nH]n1)C(=O)N[C@@H](CC(=O)O)C(=O)N[C@@H](Cc1ccccc1)C(=O)N1CCC[C@@H]1C(N)=O [X L D F p pyrazolecarbonyl amide] (X14-LDF[dP]-NH2; N-terminus assumed)	35
CC(C)C[C@H](NC(=O)Cc1cccnc1)C(=O)N[C@@H](CC(=O)O)C(=O)N[C@@H](Cc1ccccc1)C(=O)N1CCC[C@@H]1C(N)=O [X L D F p pyridine-3-acetyl amide] ({Acetyl(3-pyridyl)}-LDF[dP]-NH2)	469
CC(C)C[C@H](NC(=O)c1cccnc1)C(=O)N[C@@H](CC(=O)O)C(=O)N[C@@H](Cc1ccccc1)C(=O)N1CCC[C@@H]1C(N)=O [X L D F p pyridine-3-carbonyl amide] (Nicotinoyl-LDF[dP]-NH2)	201
CC(C)C[C@H](NC(=O)c1ccncc1)C(=O)N[C@@H](CC(=O)O)C(=O)N[C@@H](Cc1ccccc1)C(=O)N1CCC[C@@H]1C(N)=O [X L D F p pyridine-4-carbonyl amide] (Isonicotinoyl-LDF[dP]-NH2)	656
CC(C)C[C@H](NC(=O)c1cccc2ccccc12)C(=O)N[C@@H](CC(=O)O)C(=O)N[C@H](C(=O)N1CCC[C@@H]1C(N)=O)C(C)C [X L D V p 1-naphthoyl amide]	1
Cc1cccc(C(=O)N[C@@H](CC(C)C)C(=O)N[C@@H](CC(=O)O)C(=O)N[C@H](C(=O)N2CCC[C@@H]2C(N)=O)C(C)C)c1C [X L D V p 2,3-dimethylbenzoyl amide]	9
Cc1cccc(C)c1C(=O)N[C@@H](CC(C)C)C(=O)N[C@@H](CC(=O)O)C(=O)N[C@H](C(=O)N1CCC[C@@H]1C(N)=O)C(C)C [X L D V p 2,6-dimethylbenzoyl amide]	5
CC(C)C[C@H](NC(=O)c1ccc2ccccc2c1)C(=O)N[C@@H](CC(=O)O)C(=O)N[C@H](C(=O)N1CCC[C@@H]1C(N)=O)C(C)C [X L D V p 2-naphthoyl amide]	1
Cc1ccc(C(=O)N[C@@H](CC(C)C)C(=O)N[C@@H](CC(=O)O)C(=O)N[C@H](C(=O)N2CCC[C@@H]2C(N)=O)C(C)C)cc1C [X L D V p 3,4-dimethylbenzoyl amide]	8
CCC(C)CC(=O)N[C@@H](CC(C)C)C(=O)N[C@@H](CC(=O)O)C(=O)N[C@H](C(=O)N1CCC[C@@H]1C(N)=O)C(C)C (stereo partly shown) [X L D V p 3-methylvaleroyl amide]	3
CC(C)CCC(=O)N[C@@H](CC(C)C)C(=O)N[C@@H](CC(=O)O)C(=O)N[C@H](C(=O)N1CCC[C@@H]1C(N)=O)C(C)C [X L D V p 4-methylvaleroyl amide]	3
CC(C)C[C@H](NC(=O)C12CC3CC(CC(C3)C1)C2)C(=O)N[C@@H](CC(=O)O)C(=O)N[C@H](C(=O)N1CCC[C@@H]1C(N)=O)C(C)C [X L D V p adamantanecarbonyl amide]	1
CC(C)C[C@H](NC(=O)C=Cc1ccccc1)C(=O)N[C@@H](CC(=O)O)C(=O)N[C@H](C(=O)N1CCC[C@@H]1C(N)=O)C(C)C [X L D V p cinnamoyl amide]	1
CC(C)C[C@H](NC(=O)CC1CCCCC1)C(=O)N[C@@H](CC(=O)O)C(=O)N[C@H](C(=O)N1CCC[C@@H]1C(N)=O)C(C)C [X L D V p cyclohexaneacetyl amide]	2
CC(C)C[C@H](NC(=O)C1CCCCC1)C(=O)N[C@@H](CC(=O)O)C(=O)N[C@H](C(=O)N1CCC[C@@H]1C(N)=O)C(C)C [X L D V p cyclohexanecarbonyl amide]	5
CC(C)C[C@H](NC(=O)CCC1CCCCC1)C(=O)N[C@@H](CC(=O)O)C(=O)N[C@H](C(=O)N1CCC[C@@H]1C(N)=O)C(C)C [X L D V p cyclohexanepropionyl amide]	1
CC(C)C[C@H](NC(=O)CCc1ccccc1)C(=O)N[C@@H](CC(=O)O)C(=O)N[C@H](C(=O)N1CCC[C@@H]1C(N)=O)C(C)C [X L D V p phenylpropionyl amide]	14
CC(C)C[C@@H](C(=O)N[C@@H](CC(=O)O)C(=O)N[C@H](C(=O)N1CCC[C@@H]1C(N)=O)C(C)C)N1C(=O)c2ccccc2C1=O [X L D V p phthalimido amide]	140
CC(C)C[C@H](NC(=O)c1ccccn1)C(=O)N[C@@H](CC(=O)O)C(=O)N[C@H](C(=O)N1CCC[C@@H]1C(N)=O)C(C)C [X L D V p pyridine-2-carbonyl amide]	8
CC(C)C[C@H](NC(=O)c1cccnc1)C(=O)N[C@@H](CC(=O)O)C(=O)N[C@H](C(=O)N1CCC[C@@H]1C(N)=O)C(C)C [X L D V p pyridine-3-carbonyl amide]	71

Same assay, conditions: normalized IC50 relative to standard peptide of SEQ ID NO:3 (=1); about one-tenth or less of the standard is assigned zero

Structure (SMILES)	RELATIVE POTENCY (relative peptide inhibition of VLA-4 binding CS-1)
CC(C)C[C@H](NC(=O)Cc1ccccc1)C(=O)N[C@@H](CC(=O)O)C(=O)N[C@@H](Cc1ccccc1)C(N)=O [X L D F phenylacetyl amide] (PhAc-Leu-Asp-Phe-NH2)	1
CC(C)C[C@H](NC(=O)Cc1ccccc1)C(=O)N[C@@H](CC(=O)O)C(=O)NCC(=O)N1CCOCC1 [X L D G Z phenylacetyl morpholinamide] (PhAc-Leu-Asp-Gly-Morpholide)	9
CC(C)C[C@H](NC(=O)Cc1ccccc1)C(=O)N[C@@H](CC(=O)O)C(=O)N[C@@H](CC(C)C)C(=O)N1CCOCC1 [X L D L Z phenylacetyl morpholinamide] (PhAc-Leu-Asp-Leu-Morpholide)	291
CC(C)C[C@H](NC(=O)Cc1ccccc1)C(=O)N[C@@H](CC(=O)O)C(=O)N[C@@H](CO)C(=O)N1CCC[C@@H]1C(N)=O [X L D S p phenylacetyl amide] (PhAc-LDS[dP]-NH2)	17
CC(C)C[C@H](NC(=O)c1ccccc1)C(=O)N[C@@H](CC(=O)O)C(=O)N[C@H](C(=O)N1CCC[C@H]1C(N)=O)C(C)C [X L D V P benzoyl amide]	37
CC(C)C[C@H](NC(=O)Cc1ccccc1)C(=O)N[C@@H](CC(=O)O)C(=O)N[C@H](C(=O)N1CCC[C@@H]1C(N)=O)C(C)C [X L D V p phenylacetyl amide, N-phenylacetyl-Leu-Asp-Val-D-Pro-NH2]	106
CC(C)C[C@H](NC(=O)Cc1ccccc1)C(=O)N[C@@H](CC(=O)O)C(=O)N[C@@H](Cc1c[nH]c2ccccc12)C(=O)N1CCC[C@@H]1C(N)=O [X L D W p phenylacetyl amide] (PhAc-LDW[dP]-NH2)	184
CC(C)C[C@H](NC(=O)Cc1ccccc1)C(=O)N[C@@H](CC(=O)O)C(=O)N[C@@H](Cc1ccc(O)cc1)C(=O)N1CCOCC1 [X L D Y Z phenylacetyl morpholinamide, N-phenylacetyl-Leu-Asp-Tyr-morpholinamide] (PhAc-Leu-Asp-Tyr-Morpholide)	313
CC(C)C[C@H](NC(=O)Cc1ccccc1)C(=O)N[C@@H](CC(=O)O)C(=O)N[C@@H](Cc1ccc(O)cc1)C(=O)N1CCC[C@@H]1C(N)=O [X L D Y p phenylacetyl amide, N-phenylacetyl-Leu-Asp-Tyr-D-Pro-NH2] (PhAc-LDY[dP]-NH2)	640
CC(C)C[C@H](NC(=O)Cc1ccccc1)C(=O)N[C@@H](CC(=O)O)C(=O)NNC(=O)OC(C)(C)C [X L D Z phenylacetyl N'-t-Boc-hydrazide]	2
CC(C)C[C@H](NC(=O)Cc1ccccc1)C(=O)N[C@@H](CC(=O)O)C(=O)NCc1ccccc1 [X L D Z phenylacetyl benzylamide] (PhAc-Leu-Asp-NHBn)	19
CC(C)C[C@H](NC(=O)Cc1ccccc1)C(=O)N[C@@H](CC(=O)O)C(=O)NC(c1ccccc1)c1ccccc1 [X L D Z phenylacetyl benzylhydrylamide]	3
CC(C)C[C@H](NC(=O)Cc1ccccc1)C(=O)N[C@@H](CC(=O)O)C(=O)N(Cc1ccccc1)Cc1ccccc1 [X L D Z phenylacetyl dibenzylamide]	0
CC(C)C[C@H](NC(=O)Cc1ccccc1)C(=O)N[C@@H](CC(=O)O)C(=O)NN [X L D Z phenylacetyl hydrazide] (PhAc-Leu-Asp-NHNH2)	1

Same assay, conditions: normalized IC50 relative to standard peptide of SEQ ID NO:3 (=1); about one-tenth or less of the standard is assigned zero; listed as X L D V p benzoyl amide

Structure (SMILES)	RELATIVE POTENCY (relative peptide inhibition of VLA-4 binding CS-1)
CC(C)C[C@H](NC(=O)c1ccccc1)C(=O)N[C@@H](CC(=O)O)C(=O)N[C@H](C(=O)N1CCC[C@H]1C(N)=O)C(C)C [X L D V P benzoyl amide]	20

Same assay, conditions: normalized IC50 relative to standard peptide of SEQ ID NO:3 (=1); about one-tenth or less of the standard is assigned zero; listed as X L D Y P phenylacetyl amide

Structure (SMILES)	RELATIVE POTENCY (relative peptide inhibition of VLA-4 binding CS-1)
CC(C)C[C@H](NC(=O)Cc1ccccc1)C(=O)N[C@@H](CC(=O)O)C(=O)N[C@@H](Cc1ccc(O)cc1)C(=O)N1CCC[C@@H]1C(N)=O [X L D Y p phenylacetyl amide, N-phenylacetyl-Leu-Asp-Tyr-D-Pro-NH2] (PhAc-LDY[dP]-NH2)	405
